Results published in patent publication US20220356174A1, “PYRIDIN-2-ONE COMPOUNDS USEFUL AS SMARCA2 ANTAGONISTS” (Epizyme, Inc., priority 2018, published 2022).
Where two headings read alike, the source gives them in different places.

How the values were obtained:
FL-SMARCA4 = FL-SMARCA4 (Homo sapiens, UniProt P51532); experiment: SMARCA4 ATPase activity assay (ADP-Glo, chicken mononucleosome substrate)
A549 cells [1] = experiment: High-throughput proliferation (HTP) assay for A549 cells (CellTiter-Glo, 7 days); type: cell-based; details: Homo sapiens, 168 h, read-out: A549 SMARCA2 IC50
Method in brief: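 A549 cells plated at 62.5 cells/well in F12K + 10% HI-FBS onto pre-dispensed compound, grown 7 days at 37° C., 5% CO2. Viability by CellTiter-Glo luminescence after 30 min at RT; EC50/IC50 from DMSO (0%) and 10 μM Doxorubicin (100%) inhibition controls.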

[2] = molecular target: T1, FL-SMARCA2 (full-length human SMARCA2 isoform 1) (Homo sapiens, UniProt P51531); experiment: SMARCA2 ATPase activity assay (ADP-Glo, chicken mononucleosome substrate); type: biochemical; details: ATPase assay, enzyme 5 nM, ATP 250 uM, chicken mononucleosome 10 nM, 30 min preincubation
T1 construct: FLAG tag (YKDDDDK) (C); made in house; host or cells: Sf21 insect cells (baculovirus, pFastBacI)
T1 sequence (P51531 with tags, fused parts or gaps): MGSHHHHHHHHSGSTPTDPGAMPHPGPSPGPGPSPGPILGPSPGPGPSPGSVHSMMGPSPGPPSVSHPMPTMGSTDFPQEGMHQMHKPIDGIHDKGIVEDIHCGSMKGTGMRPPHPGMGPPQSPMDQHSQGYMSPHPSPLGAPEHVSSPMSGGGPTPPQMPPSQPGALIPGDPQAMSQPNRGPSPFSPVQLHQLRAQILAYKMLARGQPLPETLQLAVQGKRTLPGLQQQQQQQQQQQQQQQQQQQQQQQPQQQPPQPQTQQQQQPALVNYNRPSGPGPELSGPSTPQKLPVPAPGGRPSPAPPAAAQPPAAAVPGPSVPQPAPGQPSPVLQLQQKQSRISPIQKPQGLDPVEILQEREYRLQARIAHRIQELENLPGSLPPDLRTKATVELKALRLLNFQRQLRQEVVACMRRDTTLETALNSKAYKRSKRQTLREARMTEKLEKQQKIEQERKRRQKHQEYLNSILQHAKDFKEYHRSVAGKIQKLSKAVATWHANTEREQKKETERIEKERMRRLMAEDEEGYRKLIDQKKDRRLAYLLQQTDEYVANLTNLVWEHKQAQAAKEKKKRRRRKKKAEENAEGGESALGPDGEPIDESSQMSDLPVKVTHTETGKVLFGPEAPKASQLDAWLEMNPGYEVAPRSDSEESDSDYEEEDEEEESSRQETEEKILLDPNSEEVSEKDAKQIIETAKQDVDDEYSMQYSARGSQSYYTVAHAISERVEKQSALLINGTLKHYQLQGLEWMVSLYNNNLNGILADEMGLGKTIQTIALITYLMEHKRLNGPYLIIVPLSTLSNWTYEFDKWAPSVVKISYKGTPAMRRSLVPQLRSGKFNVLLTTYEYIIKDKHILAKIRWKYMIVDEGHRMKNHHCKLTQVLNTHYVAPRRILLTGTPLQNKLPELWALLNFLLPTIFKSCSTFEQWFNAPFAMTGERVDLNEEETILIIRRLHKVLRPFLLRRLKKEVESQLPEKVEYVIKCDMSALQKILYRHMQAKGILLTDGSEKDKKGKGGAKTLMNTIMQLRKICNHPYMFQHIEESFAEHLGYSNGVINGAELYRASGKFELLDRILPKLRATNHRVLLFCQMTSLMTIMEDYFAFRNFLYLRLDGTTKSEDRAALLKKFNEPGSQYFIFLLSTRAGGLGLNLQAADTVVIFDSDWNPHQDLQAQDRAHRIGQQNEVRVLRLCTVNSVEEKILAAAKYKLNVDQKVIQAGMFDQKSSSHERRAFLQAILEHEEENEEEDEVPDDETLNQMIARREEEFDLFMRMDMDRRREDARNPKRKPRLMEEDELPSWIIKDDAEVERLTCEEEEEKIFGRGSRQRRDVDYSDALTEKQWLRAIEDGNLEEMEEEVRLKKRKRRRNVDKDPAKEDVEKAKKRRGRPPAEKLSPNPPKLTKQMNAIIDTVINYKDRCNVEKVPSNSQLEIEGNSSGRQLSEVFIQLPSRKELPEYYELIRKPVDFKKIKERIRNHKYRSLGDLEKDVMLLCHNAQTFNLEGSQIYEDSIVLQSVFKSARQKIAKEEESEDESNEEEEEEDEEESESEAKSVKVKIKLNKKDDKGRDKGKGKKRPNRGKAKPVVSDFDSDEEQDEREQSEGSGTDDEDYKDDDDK

SMARCA2 = molecular target: T2, SMARCA2 (Homo sapiens, UniProt P51531); experiment: SMARCA2 FRET nucleosome remodeling activity assay; type: biochemical
T2 construct: FLAG tag (YKDDDDK) (C); made in house; host or cells: Sf21 insect cells (baculovirus, pFastBacI)
T2 sequence (P51531 with tags, fused parts or gaps): as above
Protocol: The SMARCA2 remodeling assay was initiated by the addition of 2 uL of a nucleosome remodeling assay substrate and ATP mixture (final volume=10 uL). […] The assays were terminated after 15 minutes by the addition of 2 uL EDTA (final concentration of 25 mM). The SMARCA2 remodeling activity was determined by measuring the fluorescence ratio of the Cy3 and Cy5 labels ([…]). The remodeling of the nucleosome substrate causes an increase in the spacing between the Cy3 and Cy5 labels and therefore a reduction in FRET and an increase in Cy3/Cy5 fluorescence ratio.

A549 cells [3] = experiment: Long term proliferation (LTP) assay, day 15 IC50 in A549 cells; type: cell-based; details: Homo sapiens, 360 h
H358 cells = experiment: High-throughput proliferation (HTP) assay for H358 cells (CellTiter-Glo, 7 days); type: cell-based; details: Homo sapiens, NCI-H358, 168 h, read-out: H358 SMARCA2 IC50
Method in brief: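 Cells were plated at 1,000 cells/well in RPMI 1640 + 10% HI-FBS + 1% pen/strep on pre-dispensed compound and incubated 7 days at 37 °C, 5% CO2. Viability was read as ATP luminescence with CellTiter-Glo after 30 min at RT. DMSO served as 0% and 10 µM doxorubicin as 100% inhibition for EC50/IC50.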

[4] = FL-SMARCA4 IC50, Table 3.2, ATPase assay, enzyme 5 nM, ATP 250 uM, chicken mononucleosome 10 nM, 30 min preincubation
[5] = FL-SMARCA4 IC>50, Table 3c.2, ATPase assay, enzyme 5 nM, ATP 250 uM, chicken mononucleosome 10 nM, 30 min preincubation

FL-SMARCA4, sequence (P51532 whole entry): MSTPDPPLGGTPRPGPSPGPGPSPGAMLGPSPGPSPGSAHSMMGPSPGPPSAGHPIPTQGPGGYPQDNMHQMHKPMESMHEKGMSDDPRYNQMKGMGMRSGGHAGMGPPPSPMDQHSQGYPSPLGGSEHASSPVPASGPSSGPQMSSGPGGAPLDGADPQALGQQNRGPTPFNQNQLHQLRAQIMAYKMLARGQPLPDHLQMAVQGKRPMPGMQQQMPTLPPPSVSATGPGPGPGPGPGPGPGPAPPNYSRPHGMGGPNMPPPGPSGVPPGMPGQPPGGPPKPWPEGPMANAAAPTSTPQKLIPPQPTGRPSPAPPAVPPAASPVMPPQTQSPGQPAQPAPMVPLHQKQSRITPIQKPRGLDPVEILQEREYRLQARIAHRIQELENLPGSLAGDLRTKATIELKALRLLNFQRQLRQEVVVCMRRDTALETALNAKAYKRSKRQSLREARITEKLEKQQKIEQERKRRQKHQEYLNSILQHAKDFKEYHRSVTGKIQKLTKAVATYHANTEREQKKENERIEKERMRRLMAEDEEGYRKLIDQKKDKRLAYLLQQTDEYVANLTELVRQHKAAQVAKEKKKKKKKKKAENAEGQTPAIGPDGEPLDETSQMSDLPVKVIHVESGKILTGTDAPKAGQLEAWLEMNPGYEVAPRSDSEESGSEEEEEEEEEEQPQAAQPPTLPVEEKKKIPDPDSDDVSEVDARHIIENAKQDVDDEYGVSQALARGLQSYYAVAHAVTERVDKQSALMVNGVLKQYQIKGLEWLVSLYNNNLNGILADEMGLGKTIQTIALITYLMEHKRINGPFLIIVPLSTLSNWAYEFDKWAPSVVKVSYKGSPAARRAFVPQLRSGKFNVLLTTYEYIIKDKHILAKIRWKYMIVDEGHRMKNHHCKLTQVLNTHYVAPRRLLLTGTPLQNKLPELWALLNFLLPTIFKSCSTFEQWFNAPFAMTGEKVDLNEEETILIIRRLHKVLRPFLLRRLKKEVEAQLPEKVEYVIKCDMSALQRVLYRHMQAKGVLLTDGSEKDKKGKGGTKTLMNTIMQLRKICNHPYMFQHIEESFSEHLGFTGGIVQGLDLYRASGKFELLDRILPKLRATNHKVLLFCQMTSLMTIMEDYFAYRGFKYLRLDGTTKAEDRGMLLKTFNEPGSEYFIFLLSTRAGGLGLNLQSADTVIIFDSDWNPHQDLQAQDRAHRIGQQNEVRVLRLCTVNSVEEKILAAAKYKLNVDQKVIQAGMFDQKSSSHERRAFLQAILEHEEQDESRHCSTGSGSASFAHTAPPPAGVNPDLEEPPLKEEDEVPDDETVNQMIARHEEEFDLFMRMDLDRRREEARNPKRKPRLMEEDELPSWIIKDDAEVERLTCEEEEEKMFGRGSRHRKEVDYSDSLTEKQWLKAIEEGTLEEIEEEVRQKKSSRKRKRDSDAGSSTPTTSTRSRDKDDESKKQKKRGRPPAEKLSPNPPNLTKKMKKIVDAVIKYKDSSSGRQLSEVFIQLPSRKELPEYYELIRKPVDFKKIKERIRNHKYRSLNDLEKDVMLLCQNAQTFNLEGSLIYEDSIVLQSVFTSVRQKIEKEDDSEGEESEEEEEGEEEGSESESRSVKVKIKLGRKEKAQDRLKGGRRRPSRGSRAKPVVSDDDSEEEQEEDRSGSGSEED

Compound | IC50 (FL-SMARCA4; [4]) | IC50 (A549 cells [1]) | IC50 ([2]; Table 3.1) | IC50 (SMARCA2) | IC50 (A549 cells [3]) | IC50 (H358 cells) | IC50 (FL-SMARCA4; [5]) | IC50 ([2]; Table 3c.1) | IC50 (FL-SMARCA4; FL-SMARCA4 IC50) | IC50 ([2]; Table 3d.1, read-out: FL-SMARCA2 IC>50)
CCn1cc(NC(=O)c2cc(C#N)c(C#N)s2)cc(Cl)c1=O [Compound 191] | 0.184 µM | 13.4 µM | 0.0459 µM | 0.0653 µM | 8.3 µM |  |  |  |  | 
N#Cc1cc(C(=O)Nc2cc(Cl)c(=O)n(CCF)c2)sc1C#N [Compound 192] | 0.0874 µM | ≥ 20 µM | 0.0171 µM | 0.0219 µM | 4.2 µM |  |  |  |  | 
N#Cc1ncc(C(=O)Nc2cc(F)c(=O)n(CC(F)(F)F)c2)o1 [Compound 267] | > 50 µM |  | > 50 µM |  | ≥ 10 µM |  |  |  |  | 
N#Cc1sc(C(=O)Nc2cc(F)c(=O)n(CC(F)F)c2)cc1Cl [Compound 285] | 0.0868 µM | 0.934 µM | 0.0272 µM | 0.00922 µM |  |  |  |  |  | 
N#Cc1ncc(C(=O)Nc2cc(Cl)c(=O)n(CC(F)(F)F)c2)s1 [Compound 137] | 0.111 µM |  | 0.026 µM | 0.029 µM |  |  |  |  |  | 
Cn1c(C(=O)Nc2ccc(=O)n(-c3ccccc3)c2)cc(Cl)c1Cl [Compound 47] |  |  | > 50 µM |  | ≥ 30 µM |  |  |  |  | 
CCn1cc(NC(=O)c2cc(Cl)c(C#N)s2)cc(F)c1=O [Compound 128] | 0.161 µM |  | 0.0787 µM | 0.223 µM |  |  |  |  |  | 
CCn1cc(NC(=O)c2cnc(C#N)s2)cc(Cl)c1=O [Compound 136] | 0.184 µM |  | 0.0577 µM | 0.0288 µM |  |  |  |  |  | 
CCn1cc(NC(=O)c2cc(Cl)n[nH]2)cc(Cl)c1=O [Compound 146] | 3.59 µM |  | 1.02 µM | 2.57 µM |  |  |  |  |  | 
CCn1cc(NC(=O)c2cnc(C#N)s2)cc(F)c1=O [Compound 150] | 0.0948 µM |  | 0.0266 µM | 0.0217 µM |  |  |  |  |  | 
Cc1ncc(C#Cc2cc(C(=O)Nc3cc(F)c(=O)n(CC(F)F)c3)sc2Cl)o1 [Compound 62c] |  | 0.548 µM |  |  | 0.089 µM | > 10 µM | 0.0268 µM | 0.00805 µM |  | 
O=C(Nc1cc(F)c(=O)n(CC(F)F)c1)c1cc(F)c(C(F)F)s1 [Compound 325] | 0.163 µM |  | 0.0355 µM |  | 0.312 µM |  |  |  |  | 
O=C(Nc1cc(F)c(=O)n(CC(F)(F)F)c1)c1cc(Cl)c(Cl)s1 [Compound 141] | 0.352 µM |  | 0.0941 µM | 0.399 µM |  |  |  |  |  | 
CCn1cc(NC(=O)c2cc(Cl)c(Cl)s2)ccc1=O [Compound 43] |  |  | 1.26 µM |  | 15.2 µM |  |  |  |  | 
O=C(Nc1ccc(=O)n(CC(F)(F)F)c1)c1cc(Cl)n[nH]1 [Compound 145] | 12 µM |  | 3.01 µM | 5.06 µM |  |  |  |  |  | 
N#Cc1sc(C(=O)Nc2cc(Cl)c(=O)n(CC(F)(F)F)c2)cc1Cl [Compound 131] | 0.303 µM |  | 0.113 µM | 0.171 µM |  |  |  |  |  | 
N#Cc1sc(C(=O)Nc2cc(F)c(=O)n(CC(F)(F)F)c2)cc1Cl [Compound 140] | 0.147 µM | 1.25 µM | 0.0467 µM | 0.089 µM |  |  |  |  |  | 
CCn1cc(NC(=O)c2cc(Cl)c(Cl)n2C)ccc1=O [Compound 1] | 39.6 µM |  | 2.72 µM | 7.12 µM |  |  |  |  |  | 
CCn1cc(NC(=O)c2cc(Cl)c(Cl)s2)ncc1=O [Compound 18d] |  |  |  |  | ≥ 30 µM |  |  |  | > 50 µM | > 50 µM
Cc1cc(C#Cc2cc(C(=O)Nc3cc(F)c(=O)n(CC(F)F)c3)sc2Cl)sn1 [Compound 64c] |  | 0.374 µM |  |  | 0.088 µM | > 10 µM | 0.0297 µM | 0.00879 µM |  | 
O=C(Nc1ccc(=O)n(CCF)c1)c1cc(Cl)c(Cl)s1 [Compound 80] | 0.758 µM | 11.5 µM | 0.209 µM |  | 6.25 µM |  |  |  |  | 
N#Cc1sc(C(=O)Nc2cc(F)c(=O)n(CC(F)F)c2)cc1C(F)(F)F [Compound 96c] |  | > 10 µM |  |  | ≥ 10 µM | > 10 µM | 29.3 µM | 10.5 µM |  | 
O=C(Nc1cc(F)c(=O)n(CC(F)F)c1)c1cc(C#Cc2ccncc2)c(Cl)s1 [Compound 345] | 0.0379 µM | 0.355 µM | 0.0165 µM |  | 0.058 µM | > 10 µM |  |  |  | 

The remaining lines, values ahead:

IC50 (FL-SMARCA4; [4]) | IC50 (A549 cells [1]) | IC50 ([2]; Table 3.1) | IC50 (SMARCA2) | IC50 (A549 cells [3]) | IC50 (H358 cells) | IC50 (FL-SMARCA4; [5]) | IC50 ([2]; Table 3c.1) | IC50 (FL-SMARCA4; FL-SMARCA4 IC50) | IC50 ([2]; Table 3d.1, read-out: FL-SMARCA2 IC>50) | Compound
0.181 µM | 0.597 µM | 0.0382 µM | 0.0181 µM |  |  |  |  |  |  | N#Cc1cc(C(=O)Nc2cc(F)c(=O)n(CCF)c2)sc1Cl [Compound 196]
0.68 µM |  | 0.136 µM | 0.407 µM |  |  |  |  |  |  | O=C(Nc1cc(F)c(=O)n(CCF)c1)c1cc(Cl)c(C(F)F)s1 [Compound 290]
0.0654 µM | 0.528 µM | 0.0153 µM | 0.0182 µM | 0.093 µM |  |  |  |  |  | O=C(Nc1cc(F)c(=O)n(CCF)c1)c1cc(F)c(Cl)s1 [Compound 260]
0.0683 µM | 0.313 µM | 0.0192 µM |  | 0.106 µM |  |  |  |  |  | O=C(Nc1cc(F)c(=O)n(CC(F)F)c1)c1cc(F)c(Cl)s1 [Compound 323]
0.163 µM | 1.34 µM | 0.0474 µM | 0.06 µM | 0.534 µM |  |  |  |  |  | O=C(Nc1cc(F)c(=O)n(CCF)c1)c1cnc(Cl)s1 [Compound 142]
0.0337 µM | 9.69 µM | 0.00909 µM | 0.0234 µM |  |  |  |  |  |  | N#Cc1cc(C(=O)Nc2cc(F)c(=O)n(CCF)c2)sc1C#N [Compound 189]
0.196 µM | 0.904 µM | 0.0512 µM | 0.114 µM |  |  |  |  |  |  | O=C(Nc1cc(F)c(=O)n(CCF)c1)c1cc(Cl)c(Cl)s1 [Compound 129]
0.0674 µM |  | 0.0204 µM | 0.0288 µM |  |  |  |  |  |  | N#Cc1ncc(C(=O)Nc2cc(F)c(=O)n(CC(F)(F)F)c2)s1 [Compound 151, 2-Cyano-N-(5-fluoro-6-oxo-1-(2,2,2-trifluoroethyl)-1,6-dihydropyridin-3-yl)thiazole-5-carboxamide]
0.228 µM | 2.46 µM | 0.0511 µM |  | 0.177 µM |  |  |  |  |  | O=C(Nc1cc(F)c(=O)n(CCF)c1)c1cc(F)c(F)s1 [Compound 259]
0.331 µM |  | 0.121 µM | 0.168 µM |  |  |  |  |  |  | O=C(Nc1cc(F)c(=O)n(CC(F)(F)F)c1)c1cnc(Cl)s1 [Compound 143]
0.736 µM |  | 0.173 µM | 0.499 µM |  |  |  |  |  |  | O=C(Nc1cc(F)c(=O)n(CCF)c1)c1cnc(C(F)F)s1 [Compound 295]
0.137 µM |  | 0.0349 µM |  | 0.282 µM |  |  |  |  |  | O=C(Nc1cc(F)c(=O)n(CCF)c1)c1cc(F)c(C(F)F)s1 [Compound 324]
 | ≥ 20 µM | 0.0127 µM | 0.0222 µM |  |  |  |  |  |  | N#Cc1ncc(C(=O)Nc2cc(Cl)c(=O)n(CCF)c2)s1 [Compound 148]
